In ChEMBL document CHEMBL1208691, “Synthesis of polyhalo acridones as pH-sensitive fluorescence probes” (Bioorg Med Chem Lett, 2010) one finds IC50 data, which are given here for five compounds.

Converted amounts (≈) assume the structure as drawn.

What all share (assay type): functional, cell-based
One assay has as its system K562. The experiment in a line: Cytotoxicity against human K562 cells by MTT assay. On the technique in general: Tetrazolium dyes change colour on reduction, which living cells bring about.
A further assay relates to HL-60. Briefly: Cytotoxicity against human HL60 cells by MTT assay.
The test system of another assay is A-431. Briefly: Cytotoxicity against human A431 cells by MTT assay.
For another assay, the system named is HepG2. Briefly: Cytotoxicity against human HepG2 cells by MTT assay.
The subject of the next assay is SK-OV-3. Briefly: Cytotoxicity against human SKOV3 cells by MTT assay.

In general, IC50 refers to the midpoint of a concentration-inhibition curve.

For the compound `NC(=O)c1c(F)c(Cl)c2[nH]c3ccc(Cl)cc3c(=O)c2c1F`, the IC50 turned out to be 3 µg/mL (≈ 8.74 µM) with K562; 16.6 µg/mL (≈ 48.4 µM) with HL-60; 0.3 µg/mL (≈ 0.874 µM) in the assay on A-431; 3.4 µg/mL (≈ 9.91 µM) in the assay on HepG2; 5.3 µg/mL (≈ 15.4 µM) in the assay on SK-OV-3.
The corresponding values for `NC(=O)c1c(Cl)c(Cl)c2[nH]c3ccccc3c(=O)c2c1Cl` are 7.7 µg/mL (≈ 22.5 µM), 5.7 µg/mL (≈ 16.7 µM), 1.2 µg/mL (≈ 3.51 µM), 1.9 µg/mL (≈ 5.56 µM) and 28 µg/mL (≈ 82 µM).
As to `NC(=O)c1c(F)c(Cl)c2[nH]c3ccccc3c(=O)c2c1F`, the 50% inhibitory concentration (IC50) in the assay with K562 came out at 0.2 µg/mL (≈ 0.648 µM); with HL-60 it was 0.2 µg/mL (≈ 0.648 µM); with A-431 it was 0.08 µg/mL (≈ 0.259 µM); with HepG2, 0.2 µg/mL (≈ 0.648 µM); with SK-OV-3 it was 4 µg/mL (≈ 13 µM).
As to `NC(=O)c1c(F)c(F)c2[nH]c3ccc(Cl)cc3c(=O)c2c1F`, the concentration for half-maximal inhibition (IC50) in the assay on K562 was 2.7 µg/mL (≈ 8.27 µM); with HL-60, 1.3 µg/mL (≈ 3.98 µM); with A-431, 0.3 µg/mL (≈ 0.918 µM); with HepG2, 4.3 µg/mL (≈ 13.2 µM); in the assay on SK-OV-3 it was 3.9 µg/mL (≈ 11.9 µM).
The corresponding values for `NC(=O)c1c(F)c(F)c2[nH]c3ccccc3c(=O)c2c1F` are 4.5 µg/mL (≈ 15.4 µM), 2 µg/mL (≈ 6.84 µM), 0.05 µg/mL (≈ 0.171 µM), 6.5 µg/mL (≈ 22.2 µM) and 4.5 µg/mL (≈ 15.4 µM).
